The source of these data is ChEMBL document CHEMBL2073763, “Functional involvement of rat organic anion transporter 3 (rOat3; Slc22a8) in the renal uptake of organic anions” (J Pharmacol Exp Ther, 2002).

Holding throughout (assay type): functional, cell-based
For data set [1], the target named is T1, Solute carrier family 22 member 6 (Rattus norvegicus, UniProt O35956).
T1 sequence (O35956 whole entry): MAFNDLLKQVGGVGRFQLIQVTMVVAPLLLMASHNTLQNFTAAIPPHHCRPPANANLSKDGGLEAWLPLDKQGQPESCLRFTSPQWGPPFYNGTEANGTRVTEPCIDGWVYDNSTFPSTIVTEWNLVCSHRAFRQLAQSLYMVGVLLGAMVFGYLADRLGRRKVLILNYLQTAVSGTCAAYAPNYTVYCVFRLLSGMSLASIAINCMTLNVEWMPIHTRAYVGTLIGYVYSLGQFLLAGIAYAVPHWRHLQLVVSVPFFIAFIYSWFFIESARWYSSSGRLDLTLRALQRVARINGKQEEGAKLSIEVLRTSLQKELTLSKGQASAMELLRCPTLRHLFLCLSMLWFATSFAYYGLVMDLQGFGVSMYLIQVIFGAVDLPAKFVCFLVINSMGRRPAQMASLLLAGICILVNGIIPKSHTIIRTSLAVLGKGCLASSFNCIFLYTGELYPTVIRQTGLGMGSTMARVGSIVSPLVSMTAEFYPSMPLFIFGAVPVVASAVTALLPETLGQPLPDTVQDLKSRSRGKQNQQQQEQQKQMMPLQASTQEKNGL
Description: TP_TRANSPORTER: inhibition of PAH uptake in Oat1-expressing LLC-PK1 cells.

Data set [2] addresses T2, Organic anion transporter 3 (Rattus norvegicus, UniProt Q9R1U7).
T2 sequence (Q9R1U7 whole entry): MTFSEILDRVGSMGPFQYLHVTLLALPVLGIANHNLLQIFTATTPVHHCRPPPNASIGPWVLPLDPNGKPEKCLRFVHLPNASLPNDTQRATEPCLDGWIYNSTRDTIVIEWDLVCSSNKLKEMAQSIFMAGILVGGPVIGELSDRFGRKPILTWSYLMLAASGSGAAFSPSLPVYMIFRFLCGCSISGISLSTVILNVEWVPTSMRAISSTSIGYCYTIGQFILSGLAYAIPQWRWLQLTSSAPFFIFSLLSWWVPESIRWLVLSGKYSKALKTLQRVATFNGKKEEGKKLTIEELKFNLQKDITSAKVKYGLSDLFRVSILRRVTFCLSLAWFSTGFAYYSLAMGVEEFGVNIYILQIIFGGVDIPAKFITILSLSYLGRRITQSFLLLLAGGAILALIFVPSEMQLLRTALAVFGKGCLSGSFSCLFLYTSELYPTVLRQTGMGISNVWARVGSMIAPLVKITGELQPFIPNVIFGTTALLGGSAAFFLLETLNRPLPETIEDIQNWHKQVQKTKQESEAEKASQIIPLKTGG
In words: TP_TRANSPORTER: inhibition of Pravastatin uptake in Oat3-expressing LLC-PK1 cells.

Substrate in data set [3]: CC[C@H](C)C(=O)O[C@H]1C[C@H](O)C=C2C=C[C@H](C)[C@H](CC[C@@H](O)C[C@@H](O)CC(=O)O)[C@H]21
In words: TP_TRANSPORTER: uptake in Oat3-expressing LLC-PK1 cells.

For orientation: Ki means the dissociation constant of the complex between target and ligand, obtained from inhibition or displacement. For the molecule `CC[C@H](C)C(=O)O[C@H]1C[C@H](O)C=C2C=C[C@H](C)[C@H](CC[C@@H](O)C[C@@H](O)CC(=O)O)[C@H]21` [PRAVASTATIN], in data set [1], the Ki stood at 1150 µM.

On to `O=C1OC(c2ccc(OS(=O)(=O)O)cc2)(c2ccc(OS(=O)(=O)O)cc2)c2c(Br)ccc(Br)c21` [DIBROMOSULFOPHTHALEIN], for which the inhibition constant Ki in data set [1] amounted to 2.74 µM; in data set [2], 3.09 µM.

`Nc1ccc(C(=O)NCC(=O)O)cc1` [AMINOHIPPURIC ACID] displayed a Ki in data set [2] of 1350 µM.

In turn, `CC1(C)S[C@@H]2[C@H](NC(=O)Cc3ccccc3)C(=O)N2[C@H]1C(=O)O` [PENICILLIN G] had an inhibitory constant (Ki) in data set [2] of 52.8 µM.

B1: Organic anion transporter 3 (Rattus norvegicus) (protein)
chain: T2 sequence (Q9R1U7 whole entry)
One may read the Km as the concentration of substrate that gives half-maximal velocity. B1: the Km in data set [3] was 13.4 µM.
